Patent publication US7842671B1, “Peptidomimetic inhibitors of STAT activity and uses thereof” (University of South Florida, priority 2003, dated 2010)
Where two headings read alike, the source gives them in different places. Square brackets hold non-standard residues; d marks the D form. Peptide text beside a SMILES is read from it. * marks the point of attachment. pY = N[CH](Cc1ccc(OP(=O)(O)O)cc1)C(=O)O; Nicotinoyl = O=C(c1cccnc1)*; 3Abz = Nc1cccc(C(=O)O)c1; Isobutyryl = CC(C)C(=O)*; 2Abz = Nc1ccccc1C(=O)O

Experiments:
Stat3 = Stat3 (Mus musculus, UniProt P42227); experiment: EMSA of Stat3 DNA-binding activity in nuclear extracts (hSIE probe); assay type: biochemical; parameters: nuclear extracts (prepared from epidermal growth factor (EGF)-stimulated fibroblasts); endogenous in cells; host or cells: NIH3T3 fibroblasts stimulated with EGF
Protocol: (§1) Nuclear extract preparation and gel shift assays. Nuclear extracts were prepared from cell lines and used for electrophoretic mobility shift assay (EMSA) as previously described (Garcia, R. et al. (1997); Yu, C. L. et al. (1995); Turkson, J. et al. (1998)). In some cases, cells were pre-treated with peptidomimetics for the indicated times (12-48 h) prior to harvesting for nuclear extract preparation. In other studies, nuclear extracts were pre-incubated with peptidomimetics for 30 min at room temperature prior to incubation with radiolabeled probe. The ^32P-radiolabeled oligonucleotide probes used are hSIE (high affinity sis-inducible element, m67 variant, 5′-[…]-3′) (SEQ ID NO. 3) that binds both Stat1 and Stat3 (Garcia, R. et al. (1997); Wagner B. J. et al. (1990)) and MGFe (mammary gland factor element from the bovine β-casein gene promoter, 5′-[…]-3′) (SEQ ID NO. 4) that binds Stat1 and Stat5 (Gouilleux, F. et al. (1995); Seidel, H. M. et al. (1995)).
(§2) Peptidomimetics of the invention can be prepared by replacing prolyl or alanyl residue at the peptide bond that is N-terminal to the phosphotyrosine (Y*) of a peptide such as PY*L or AY*L with an organic substituent such as an optionally substituted aryl or heteroaryl group. The activities of STATs were measured in nuclear extracts (prepared from epidermal growth factor (EGF)-stimulated fibroblasts) as DNA-bound protein complexes by electrophoretic mobility shift assay (EMSA).
From densitometric analysis of band intensities, the IC50 values (concentration of peptidomimetic at which DNA-binding activity is reduced by 50%), which are reported in Table 3, were determined.

Stat5:Stat5 = experiment: EMSA of Stat5:Stat5 DNA-binding in nuclear extracts; assay type: biochemical, mouse; conditions: nuclear extracts pre-incubated 30 min, mean and SD of at least 3 assays, read-out: IC50 values against STAT Dimers, Stat5:Stat5
Protocol: as §1
as §2, with “(EMSA). STAT-DNA complexes detected include Stat3:Stat3 homodimers (upper band), Stat1:Stat3 heterodimers (intermediate band) and Stat1:Stat1 homodimers (lower band) (FIG. 1A) when a ^32P-labeled hSIE oligonucleotide probe is used, or Stat5:Stat5 (upper band) and Stat1:Stat1 dimers (lower band) (FIG. 1B) when ^32P-labeled MGFe is used as a probe.” for “(EMSA).”

Stat1:Stat3 = biological target: T1, Stat1:Stat3 (Mus musculus, UniProt P42227); experiment: EMSA of Stat1:Stat3 heterodimer DNA-binding in nuclear extracts (hSIE probe); assay type: biochemical; conditions: nuclear extracts pre-incubated 30 min, mean and SD of at least 3 assays, read-out: IC50 values against STAT Dimers, Stat1:Stat3
T1 construct: nuclear extracts (prepared from epidermal growth factor (EGF)-stimulated fibroblasts); endogenous in cells; host or cells: NIH3T3 fibroblasts stimulated with EGF
Protocol: as §1, §2

Stat1:Stat1 = biological target: T2, Stat1:Stat1 (Mus musculus, UniProt P42225); experiment: EMSA of Stat1:Stat1 DNA-binding in nuclear extracts; assay type: biochemical; conditions: nuclear extracts pre-incubated 30 min, EMSA; mean and SD of at least 3 assays; read-out: IC50 values against STAT Dimers, Stat1:Stat1
T2 construct: nuclear extracts (prepared from epidermal growth factor (EGF)-stimulated fibroblasts); endogenous in cells; host or cells: NIH3T3 fibroblasts stimulated with EGF
T2 sequence (P42225 1-749): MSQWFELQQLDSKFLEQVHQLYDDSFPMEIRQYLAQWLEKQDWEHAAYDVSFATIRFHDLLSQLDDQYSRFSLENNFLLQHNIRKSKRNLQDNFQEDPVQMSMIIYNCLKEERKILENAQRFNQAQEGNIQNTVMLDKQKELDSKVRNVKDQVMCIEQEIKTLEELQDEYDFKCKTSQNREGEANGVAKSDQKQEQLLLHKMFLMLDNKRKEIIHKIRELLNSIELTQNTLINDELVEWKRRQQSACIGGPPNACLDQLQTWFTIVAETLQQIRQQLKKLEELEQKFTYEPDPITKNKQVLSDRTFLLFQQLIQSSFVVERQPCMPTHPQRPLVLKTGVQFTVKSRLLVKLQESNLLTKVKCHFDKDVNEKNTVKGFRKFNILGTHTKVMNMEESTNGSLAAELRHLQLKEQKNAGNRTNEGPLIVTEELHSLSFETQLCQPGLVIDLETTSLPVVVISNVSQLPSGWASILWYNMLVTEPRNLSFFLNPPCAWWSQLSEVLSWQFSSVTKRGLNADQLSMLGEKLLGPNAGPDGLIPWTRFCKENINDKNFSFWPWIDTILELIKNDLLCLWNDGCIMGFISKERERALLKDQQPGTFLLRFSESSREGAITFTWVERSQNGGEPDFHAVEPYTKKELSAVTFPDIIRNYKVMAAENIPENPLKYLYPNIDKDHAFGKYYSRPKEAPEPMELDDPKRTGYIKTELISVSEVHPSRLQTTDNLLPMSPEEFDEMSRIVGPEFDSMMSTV
Protocol: as §1
as §2, with “(EMSA). STAT-DNA complexes detected include Stat3:Stat3 homodimers (upper band), Stat1:Stat3 heterodimers (intermediate band) and Stat1:Stat1 homodimers (lower band) (FIG. 1A) when a ^32P-labeled hSIE oligonucleotide probe is used, or Stat5:Stat5 (upper band) and Stat1:Stat1 dimers (lower band) (FIG. 1B) when ^32P-labeled MGFe is used as a probe.” for “(EMSA).”

[1] = nuclear extracts pre-incubated 30 min, hSIE probe, EMSA, mean and SD of at least 3 assays, read-out: IC50, disruption of Stat3 DNA-binding activity

Chain of Stat3 (P42227 whole entry): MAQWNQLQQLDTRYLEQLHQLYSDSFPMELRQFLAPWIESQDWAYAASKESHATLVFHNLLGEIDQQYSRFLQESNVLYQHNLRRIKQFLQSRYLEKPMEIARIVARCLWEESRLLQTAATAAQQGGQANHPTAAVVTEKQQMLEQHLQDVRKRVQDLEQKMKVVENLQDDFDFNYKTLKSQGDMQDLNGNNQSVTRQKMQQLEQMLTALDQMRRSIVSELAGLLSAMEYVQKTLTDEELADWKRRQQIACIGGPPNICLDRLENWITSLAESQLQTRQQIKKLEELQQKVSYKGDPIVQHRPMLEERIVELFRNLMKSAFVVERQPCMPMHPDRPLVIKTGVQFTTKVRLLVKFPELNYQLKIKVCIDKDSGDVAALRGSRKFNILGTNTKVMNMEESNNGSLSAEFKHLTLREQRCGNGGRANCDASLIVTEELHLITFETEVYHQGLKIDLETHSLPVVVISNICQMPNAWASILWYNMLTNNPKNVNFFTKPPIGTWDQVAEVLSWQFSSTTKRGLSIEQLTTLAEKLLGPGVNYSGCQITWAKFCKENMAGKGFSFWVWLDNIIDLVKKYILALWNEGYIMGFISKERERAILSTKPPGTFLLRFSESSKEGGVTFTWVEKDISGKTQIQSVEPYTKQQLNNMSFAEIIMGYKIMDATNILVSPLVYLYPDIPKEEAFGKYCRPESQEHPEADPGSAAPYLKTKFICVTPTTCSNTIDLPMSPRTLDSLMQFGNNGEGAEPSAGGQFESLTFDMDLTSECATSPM
T1 sequence (P42227 whole entry): as above

Compound | IC50 (Stat3) [µM] | IC50 (Stat3; [1]) [µM] | other results
CC(=O)NC(Cc1ccc(OP(=O)(O)O)cc1)C(=O)NC(CC(C)C)C(=O)O (centres unmarked) [ISS230] (Ac-[pY]-Leu-OH; configuration not given here) | > 1000 |  | 
CC(C)CC(NC(=O)C(Cc1ccc(OP(=O)(O)O)cc1)NC(=O)C(C)C)C(=O)O (centres unmarked) [ISS234] (Isobutyryl-[pY]-Leu-OH; configuration not given here) | > 1000 |  | 
CC(C)CC(NC(=O)C(Cc1ccc(OP(=O)(O)O)cc1)NC(=O)c1cccnc1)C(=O)O (centres unmarked) [ISS 219] (Nicotinoyl-[pY]-Leu-OH; configuration not given here) |  | 232 | 
Cc1ncccc1C(=O)NC(Cc1ccc(OP(=O)(O)O)cc1)C(=O)NC(CC(C)C)C(=O)O (centres unmarked) [ISS 221] |  | 75 | IC50 (Stat5:Stat5): 50 µM; effect on Stat3 DNA-binding activity in vitro (in words) (Stat3; nuclear extracts, EMSA): potent disrupters of active Stat3; IC50 (Stat1:Stat3): 455 µM; IC50 (Stat1:Stat1): 310 µM
Cc1ccc(C(=O)NC(Cc2ccc(OP(=O)(O)O)cc2)C(=O)NC(CC(C)C)C(=O)O)cn1 (centres unmarked) [ISS 223] | 225 |  | 
CC(C)CC(NC(=O)C(Cc1ccc(OP(=O)(O)O)cc1)NC(=O)c1cccc(N)c1)C(=O)O (centres unmarked) [ISS 248] (H-[3Abz]-[pY]-Leu-OH; configuration not given here) | > 1000 |  | 
CC(C)CC(NC(=O)C(Cc1ccc(OP(=O)(O)O)cc1)NC(=O)c1ccc(N)nc1)C(=O)O (centres unmarked) [ISS 249] | > 1000 |  | 
CC(C)CC(NC(=O)C(Cc1ccc(OP(=O)(O)O)cc1)NC(=O)c1ccccc1N)C(=O)O (centres unmarked) [ISS 265] (H-[2Abz]-[pY]-Leu-OH; configuration not given here) |  | > 1000 | 
CC(C)CC(NC(=O)C(Cc1ccc(OP(=O)(O)O)cc1)NC(=O)c1cccc2ccccc12)C(=O)O (centres unmarked) [ISS 352] | 410 |  | 
CC(C)CC(NC(=O)C(Cc1ccc(OP(=O)(O)O)cc1)NC(=O)c1ccc2ccccc2c1)C(=O)O (centres unmarked) [ISS 353] |  | 650 | 
